Measured values published in patent publication US11130762B2, “Azaaryl derivative, preparation method therefor, and application thereof for use in pharmacy” (Abbisko Therapeutics Co., Ltd., priority 2017, dated 2021).
Where two headings read alike, the source gives them in different places.

Legend:
CSF-1R = CSF-1R (Homo sapiens, UniProt P07333); experiment: CSF-1R in vitro biochemical kinase study (ADP-Glo assay); conditions: 500 μM ATP, * = average of multiple tests, read-out: Enzymatic experiment CSF1R IC50
Experimental: A. CSF-1R In Vitro Biochemical Kinase Study
In the present invention, the inhibitory activity of compounds against the CSF-1R activity was determined by using CSF-1R ADP-Glo assay. The compound-mediated inhibition effect was achieved by inhibiting the production of ADP from consumption of ATP, and the activities of compounds were evaluated by using the ADP-Glo kit (Promega, cat. No. V9101). The specific experimental process was as follows:
1. The kinase reaction performed in the present invention was carried out in a 384-well plate (Perkinelmer, cat. No. 6007290), 3.95 nM of CSF-1R, 500 μM of ATP, and 0.2 mg/mL of polypeptide (Poly (Glu4, Try1), Sigma, cat. No. P0275) were respectively weighed and added to each well:
2. following reagents were then added to each well to reach the final reaction system: 40 mM Tris, pH 7.5, 20 mM MgCl2, 0.01% Triton X-100, 0.1 mg/mL BSA, 2.5 mM DTT, and 0.1% DMSO;
3. the reaction was conducted at 30° C. for 60 min;
4. then an equal volume of stop solution (ADP-Glo) was added to the kinase reaction system;
5. the mixed solution was incubated at 25° C. for 60 min, and the kinase reaction was then terminated;
6. a two-fold volume of detection reagent was then added to each well;
7. the mixed solution was incubated at 25° C. for 30 min;
8. the compound IC50 value was measured by using a plate reader (Tecan, M1000) and a four-parameter curve was generated in Graphpad Prism.

[1] = tested on: M-NFS-60 mouse myeloid leukemia lymphocytes; experiment: CSF-1R-related cell proliferation experiment (Cell Titer Glo), M-NFS-60 cells with M-CSF; type: cell-based; conditions: Lymphocyte, 72 h, 3 days, CTG, * = average of multiple tests
Experimental: C. CSF-1R-Related Cell Proliferation Experiment
Functional effects of compounds on cell proliferation were evaluated by using Cell Titer Glo (CTG) study in the present invention. M-NFS-60 mouse myeloid leukemia lymphocytes (cat. No. CCBJ078) from National Institutes For Food and Drug Control were cultured in the incubator under conditions of RPMI 1640 (Gibco, cat. No. 11875-119), 10% fetal bovine serum (Gibco, 10099-141), human 10 ng/mL M-CSF macrophage colony-stimulating factor (R&D, cat. No. MVN0915101), 37° C., and 5% CO2. Since ATP is an index for viable cell metabolism, CTG (Promega, #G7573) reagent is a homogeneous detection method for detecting the number of viable cells in the culture by quantifying ATP. Therefore, compound-mediated inhibition for cell proliferation/survival was evaluated by quantifying ATP content in cells, and the specific experimental process was as follows:
1. The cells were plated into a tissue-culture-medium-treated 96-well plate (Costar #3904) with 5,000 cells/well/80 μL fresh culture medium;
2. 24 hours later, 10 μL culture medium containing testing compound with 10-fold of final concentration was added to each well;
3. 10 μL of culture medium containing M-CSF with 10-fold of the final concentration was then added to each well;
4. dosage effect was evaluated by testing the 3-fold serial dilutions of the compound;
(§1) 5. after the cells were incubated for 3 days at 37° C. and 5% CO2, the inhibition on cell survival was quantified after 50 μL of CTG was added and the luminescence assay was performed;
(§2) 6. the compound concentration leading to half maximal inhibitory (IC50) and the compound concentration leading to absolute half maximal inhibitory (Absolute IC50) were measured by a plate reader (M1000, Tecan) and a four-parameter curve fit in Graphpad Prism 7.

[2] = tested on: MV-4-11 human acute monocytic leukemia cells; experiment: Cell proliferation (Cell Titer Glo), MV-4-11 cells (FLT3); type: cell-based; conditions: MV4-11, 72 h, 3 days, CTG, * = average of multiple tests, read-out: Cytological experiment FLT3 IC50
Experimental: (§3) D. CSF-1R-Related Cell Proliferation Experiment
(§4) Functional effects of compounds on the proliferation of several cell lines were evaluated by Cell Titer Glo (CTG) studies in the present invention, and effects of the compounds on the proliferation of different cells were evaluated to determine the selectivity degree of the compounds. In the experiment, M-07e human cytomegalic leukemia cells (cat. No. CBP60791) from Nanjing Kebai Biotechnology Co., Ltd. were cultured in an incubator under conditions of RPMI1640 (Gibco, cat. No. 11875-119), 20% fetal bovine serum (Gibco, 10099-141), human 10 ng/mL GM-CSF granulocyte macrophage colony-stimulating factors (R&D, cat. No. 215-GM-010), 37° C., and 5% CO2; and Kasumi-1 human acute myeloblastic leukemia cells (cat. No. CBP60524) were cultured in an incubator under conditions of RPMI1640 (Gibco, cat. No. 11875-119), 20% fetal bovine serum (Gibco, 10099-141), 37° C., and 5% CO2: NCI-H1703 human non-small cell lung squamous carcinoma cells (cat. No. CBP60115) were cultured in an incubator under conditions of RPMI1640 (Gibco, cat. No. 11875-119), 10% fetal bovine serum (Gibco, 10099-141), 37° C., and 5% CO2; MV-4-11 human acute monocytic leukemia cells (cat. No. CBP60522) were cultured in an incubator under conditions of IMDM (Invitrogen, cat. No. 12440053), 20% fetal bovine serum (Gibco, 10099-141), 37° C., and 5% CO2. Since ATP is an index for viable cell metabolism, CTG (Promega, #G7573) reagent is a homogeneous detection method for detecting the number of viable cells in the culture by quantifying ATP. Therefore, compound-mediated inhibition for cell proliferation/survival was evaluated by quantifying ATP content in cells, and the specific experimental process was as follows.
III) MV-4-11 Human Acute Monocytic Leukemia Cell
1. The cells were inoculated into a tissue-culture-medium-treated 96-well plate (Costar #3904) with 5000 cells/well/90 μL fresh culture medium, and cultured for 24 hrs:
2. the next day, 10 μL of culture medium containing testing compound with 10-fold of final concentration was added to each well;
(§5) 3. the dosage effect was evaluated by testing 3-fold serial dilutions of the compound, which started from 18 μM;
4. after the cells were incubated for 3 days at 37° C. and 5% CO2, the inhibition on cell survival was quantified after 50 μL of CTG was added and the luminescence assay was performed;
(§6) 5. the compound concentration leading to half maximal inhibitory (IC50) and the compound concentration leading to absolute half maximal inhibitory (Absolute IC50) were measured by a plate reader (M1000, Tecan) and a four-parameter curve fit in Graphpad Prism 7.

[3] = tested on: M-07e human cytomegalic leukemia cells; experiment: Cell proliferation (Cell Titer Glo), M-07e cells with SCF (KIT); type: cell-based; conditions: 72 h, 3 days, CTG, * = average of multiple tests, read-out: Cytological experiment KIT IC50
Experimental: as §3, §4
I) M-07e Human Cytomegalic Leukemia Cell:
1. The cells were plated into a tissue-culture-medium-treated 96-well plate (Costar #3904) with 3500 cells/well/80 μL fresh culture medium, and cultured for 24 hrs;
(§7) 2. the next day, 10 μL of culture medium containing testing compound with 10-fold of final concentration was added to each well:
3. 10 μL of culture medium containing SCF recombinant human stem cell factor (R&D, cat. No. 7466-SC-010) with 10-fold of the final concentration was then added to each well;
4. the dosage effect was evaluated by testing 4-fold serial dilutions of the compound, which started from 18 μM;
as §1, §2

[4] = tested on: NCI-H1703 human non-small cell lung squamous carcinoma cells; experiment: Cell proliferation (Cell Titer Glo), NCI-H1703 cells (PDGFRA); type: cell-based; conditions: 72 h, 3 days, CTG, * = average of multiple tests, read-out: Cytological experiment PDGFRA IC50
Experimental: as §3, §4
II) NCI-H1703 Human Non-Small Cell Lung Squamous Carcinoma Cell
1. The cells were inoculated into a tissue-culture-medium-treated 96-well plate (Costar #3904) with 5000 cells/well/90 μL fresh culture medium, and cultured for 24 hrs;
as §7, §5
4. after the cells were incubated for 3 days at 37° C. and 5% CO2, the inhibition on cell survival was quantified after 50 μL of CTG was added and the luminescence assay was performed:
as §6

[5] = read-out: Cytological experiment CSF1R IC50
[6] = absolute half maximal inhibition, read-out: Cytological experiment CSF-1R Absolute IC50

CSF-1R, sequence (P07333 20-972): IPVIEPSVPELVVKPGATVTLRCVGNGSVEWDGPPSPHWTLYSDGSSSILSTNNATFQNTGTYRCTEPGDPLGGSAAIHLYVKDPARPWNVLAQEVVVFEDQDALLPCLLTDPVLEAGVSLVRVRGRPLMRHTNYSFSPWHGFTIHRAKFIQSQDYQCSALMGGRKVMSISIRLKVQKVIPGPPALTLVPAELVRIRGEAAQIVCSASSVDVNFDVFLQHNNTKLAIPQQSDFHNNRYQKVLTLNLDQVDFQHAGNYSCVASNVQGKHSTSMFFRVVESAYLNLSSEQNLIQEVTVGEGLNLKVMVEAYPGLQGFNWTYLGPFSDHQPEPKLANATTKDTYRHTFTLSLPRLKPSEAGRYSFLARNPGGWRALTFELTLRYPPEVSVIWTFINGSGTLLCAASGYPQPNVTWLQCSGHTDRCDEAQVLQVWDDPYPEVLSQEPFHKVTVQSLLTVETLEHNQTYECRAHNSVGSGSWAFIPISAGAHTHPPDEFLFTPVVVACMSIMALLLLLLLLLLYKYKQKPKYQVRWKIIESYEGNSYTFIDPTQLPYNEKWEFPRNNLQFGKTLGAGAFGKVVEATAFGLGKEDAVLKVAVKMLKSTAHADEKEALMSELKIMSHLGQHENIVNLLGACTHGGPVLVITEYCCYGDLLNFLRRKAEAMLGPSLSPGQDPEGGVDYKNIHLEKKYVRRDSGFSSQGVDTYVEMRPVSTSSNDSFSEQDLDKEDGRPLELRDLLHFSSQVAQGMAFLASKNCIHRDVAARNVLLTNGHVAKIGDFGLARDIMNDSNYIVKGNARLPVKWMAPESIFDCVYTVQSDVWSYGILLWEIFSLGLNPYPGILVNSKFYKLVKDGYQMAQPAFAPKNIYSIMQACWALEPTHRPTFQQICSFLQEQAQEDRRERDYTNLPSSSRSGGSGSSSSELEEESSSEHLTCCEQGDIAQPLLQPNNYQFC

| SMILES | IC50 (CSF-1R) [nM] | IC50 [1, 5] [nM] | IC50 [1, 6] [nM] | IC50 [2] [nM] | IC50 [3] [nM] | IC50 [4] [nM] |
| --- | --- | --- | --- | --- | --- | --- |
| Cc1nc(-c2cnc3n(c2=O)CC[C@@H](C)N3)ccc1Oc1ccnc(-c2cnn(C)c2)c1 [Example 6, (R)-8-methyl-3-(6-methyl-5-((2-(1-methyl-1H-pyrazol-4-yl)pyridin-4-yl)oxy)pyridin-2-yl)-6,7,8,9-tetrahydro-4H-pyrimido[1,2-a]pyrimidin-4-one] | 296 | > 2000 | 710 | – | – | – |
| Cc1nc(-c2cnc3n(c2=O)CCCN3C)ccc1Oc1ccnc(-c2cn[nH]c2)c1 [Example 7, 3-(5-((2-(1H-pyrazol-4-yl)pyridin-4-yl)oxy)-6-methylpyridin-2-yl)-9-methyl-6,7,8,9-tetrahydro-4H-pyrimido[1,2-a] pyrimidin-4-one] | 84.2 | 498 | 488 | > 18000 | > 1120 | > 2000 |
| CCn1cc(-c2cc(Oc3ccc(-c4cnc5n(c4=O)CCCN5C)nc3C)ccn2)cn1 [Example 8] | 77.7 | 151 | 361 | – | – | – |
| Cc1nc(-c2cnc3n(c2=O)CCC(C)N3C)ccc1Oc1ccnc(-c2cnn(C)c2)c1 (stereo not drawn) [Example 10, 8,9-dimethyl-3-(6-methyl-5-((2-(1-methyl-1H-pyrazol-4-yl)pyridin-4-yl)oxy)pyridin-2-yl)-6,7,8,9-tetrahydro-4H-pyrimido[1,2-a]pyrimidin-4-one] | 108 | 134 | 124 | > 18000 | > 18000 | > 18000 |

Now from value to compound:

| IC50 (CSF-1R) [nM] | IC50 [1, 5] [nM] | IC50 [1, 6] [nM] | IC50 [2] [nM] | IC50 [3] [nM] | IC50 [4] [nM] | SMILES |
| --- | --- | --- | --- | --- | --- | --- |
| 157 | 249 | 185 | – | – | – | Cc1nc(-c2cnc3n(c2=O)CCN3C)ccc1Oc1ccnc(-c2cnn(C)c2)c1 [Example 3, 1-methyl-6-(6-methyl-5-((2-(1-methyl-1H-pyrazol-4-yl)pyridin-4-yl)oxy)pyridin-2-yl)-2,3-dihydroimidazo[1,2-a]pyrimidin-5(1H)-one] |
| 68.3 | 64.8 | 58.9 | 2000 | 321 | 1580 | Cc1nc(-c2cnc3n(c2=O)CCCN3C2CCC2)ccc1Oc1ccnc(-c2cnn(C)c2)c1 [Example 9, 9-cyclobutyl-3-(6-methyl-5-((2-(1-methyl-1H-pyrazol-4-yl)pyridin-4-yl)oxy)pyridin-2-yl)-6,7,8,9-tetrahydro-4H-pyrimido[1,2-a]pyrimidin-4-one] |
| 319 | 222 | 273 | > 6000 | > 2000 | > 6000 | CCCN1CCCn2c1ncc(-c1ccc(Oc3ccnc(-c4cnn(C)c4)c3)c(C)n1)c2=O [Example 11, 3-(6-methyl-5-((2-(1-methyl-1H-pyrazol-4-yl)pyridin-4-yl)oxy)pyridin-2-yl)-9-propyl-6,7,8,9-tetrahydro-4H-pyrimido [1,2-a]pyrimidin-4-one] |
| 107 | 85.2 | 77.8 | > 18000 | 755 | > 2000 | Cc1nc(-c2cnc3n(c2=O)CC[C@@H]2CCCN32)ccc1Oc1ccnc(-c2cnn(C)c2)c1 [Example 12] |
